# Tested on: HR+, HER2-negative locally advanced or metastatic breast cancer
# Assay: Study CBKM120F2302, randomized double-blind placebo-controlled Phase-III trial: buparlisib plus fulvestrant vs. placebo plus fulvestrant
# Assay type: in vivo, human
# Details: Full population
# Excerpt: For the Study, patients were selected according to the following inclusions and exclusion criteria:
# Inclusion Criteria: • Locally advanced or metastatic breast cancer • HER2-negative and hormone receptor-positive status (common breast cancer classification tests) • Postmenopausal woman • A tumor sample must be shipped to a Novartis designated laboratory for identification of biomarkers (PI3K activation status) • Progression or recurrence of breast cancer while on or after aromatase inhibitor treatment • Measurable disease or non measurable disease bone lesions in the absence of measurable disease as per Response Evaluation Criteria in Solid Tumors 1.1 • Adequate bone marrow and organ function defined by laboratory values
# Approximately 1200 patients were to be randomized in a 1:1 ratio. Enrollment was to continue until a minimum of 842 patients were randomized in the main cohort, including ≥334 patients with activated PI3K pathway status. […]
# The PI3K pathway activation status was defined based on analysis of archival tumor samples as: • A mutation in the PIK3CA gene in one or more of exons 1, 7, 9, or 20 as assessed by Sanger sequencing, and/or • Loss of phosphotensin homolog (PTEN) expression (<10% of tumor cells expressing PTEN at 1+ level by immunohistochemistry [IHC] and no tumor cells staining with an intensity >1+) […]
smiles,measurement,value
"Nc1cc(C(F)(F)F)c(-c2cc(N3CCOCC3)nc(N3CCOCC3)n2)cn1 [buparlisib, 5-(2,6-di-morpholin-4-yl-pyrimidin-4-yl)-4-trifluoromethyl-pyridin-2-ylamine]",Overall safety and tolerability profile,consistent with prior experience in single-arm and combination studies and with the class effects of PI3K inhibitors

# — US20200138824A1, “TREATMENT OF CANCER WITH A PI3K INHIBITOR IN A PATIENT PRESELECTED FOR HAVING A PIK3CA MUTATION IN THE CTDNA” (Novartis AG, priority 2015, published 2020)
